Several values for one entry are separate records, joined by “and”; a condition that tells them apart may be missing. Identical values can stand only once. Toxic doses and inconclusive results are not listed.
Tested on: CD2F1 mice, L1210 leukemia ip, survival T/C
Assay: NCI In Vivo Anticancer Drug Screen. Data for tumor model L1210 Leukemia (intraperitoneal) in CD2F1 (CDF1) mice
Conditions: endpoint: mean survival time, higher = longer survival
How it was run: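 Antitumor effect is scored in animals hosting a serially transplanted tumor. Values compare compound-dosed animals against vehicle-only controls as a simple quotient.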

[1] = dose: 25.0 mg/kg/injection, schedule: Q04DX002 (ip), vehicle: saline with Tween-80
[2] = dose: 50.0 mg/kg/injection, schedule: Q04DX002 (ip), vehicle: saline with Tween-80
[3] = dose: 100.0 mg/kg/injection, schedule: Q04DX002 (ip), vehicle: saline with Tween-80
[4] = dose: 50.0 mg/kg/injection, schedule: Q01DX009 (ip), vehicle: saline with Tween-80
[5] = dose: 100.0 mg/kg/injection, schedule: Q01DX009 (ip), vehicle: saline with Tween-80
[6] = dose: 100.0 mg/kg/injection, schedule: Q04DX003 (ip), vehicle: saline with Tween-80
[7] = dose: 200.0 mg/kg/injection, schedule: Q04DX003 (ip), vehicle: saline with Tween-80

O=C(/C=C/c1ccccc1)Oc1cc(O)cc(O)c1 was tested. Which T/C (dose: 12.5 mg/kg/injection, schedule: Q04DX002 (ip), vehicle: saline with Tween-80) did it give?
Its T/C is 102 % of control.

What about the T/C [1] of the same compound?
The T/C was 105 % of control.

What about the T/C [2] of the same compound?
Its T/C is 105 % of control.

What does the source list for O=C(O)C(=O)O.O=C(O)C(=O)O.OO.OO.[Nb]?
T/C (dose: 12.5 mg/kg/injection, schedule: Q01DX009 (ip), vehicle: water): 93 % of control; T/C (dose: 25.0 mg/kg/injection, schedule: Q01DX009 (ip), vehicle: water): 98 % of control; T/C (dose: 50.0 mg/kg/injection, schedule: Q01DX009 (ip), vehicle: water): 87 % of control

O=[N+]([O-])c1ccc(Oc2ccc(S(=O)(=O)O)cc2)cc1 was tested. Which T/C [1] did it give?
Its T/C is 95 % of control.

What about the T/C [2] of the same compound?
Its T/C is 103 % of control.

And the T/C [3]?
Its T/C is 91 % of control.

With [Cl][Hg][CH2]CN1CCCCC1 as the compound, how does the T/C [1] read?
Its T/C is 94 % of control.

What about the T/C [2] of the same compound?
Its T/C is 94 % of control.

What about the T/C [3] of the same compound?
The T/C was 94 % of control.

For CCOC(=O)Nc1cc(NCc2ccccc2)c2[nH]cnc2n1, which T/C (dose: 100.0 mg/kg/injection, schedule: Q01DX001 (ip), vehicle: Klucel (hydroxypropylcellulose) (HPC)) is on record?
The T/C was 89 % of control.

What about the T/C (dose: 200.0 mg/kg/injection, schedule: Q01DX001 (ip), vehicle: Klucel (hydroxypropylcellulose) (HPC)) of the same compound?
Its T/C is 95 % of control.

And the T/C (dose: 400.0 mg/kg/injection, schedule: Q01DX001 (ip), vehicle: Klucel (hydroxypropylcellulose) (HPC))?
Its T/C is 98 % of control.

What does the source list for [Cu+2].[NH-]CC(=O)O.[NH-]CC(=O)O?
T/C (dose: 5.0 mg/kg/injection, schedule: Q01DX009 (ip), vehicle: saline): 98 % of control; T/C (dose: 10.0 mg/kg/injection, schedule: Q01DX009 (ip), vehicle: saline): 104 % of control

For CCCCCCCCCNP(=O)(OCc1ccccc1)N(CCCl)CCCl (centres undefined), which T/C (dose: 25.0 mg/kg/injection, schedule: Q01DX001 (ip), vehicle: DMSO) is on record?
The T/C was 94 % of control.

What about the T/C (dose: 50.0 mg/kg/injection, schedule: Q01DX001 (ip), vehicle: DMSO) of the same compound?
The T/C was 94 % of control.

What about the T/C (dose: 100.0 mg/kg/injection, schedule: Q01DX001 (ip), vehicle: DMSO) of the same compound?
Its T/C is 95 % of control.

What about the T/C (dose: 200.0 mg/kg/injection, schedule: Q01DX001 (ip), vehicle: DMSO) of the same compound?
The T/C was 94 % of control.

What about the T/C (dose: 400.0 mg/kg/injection, schedule: Q01DX001 (ip), vehicle: DMSO) of the same compound?
The T/C was 91 % of control.

Which T/C (dose: 75.0 mg/kg/injection, schedule: Q01DX001 (ip), vehicle: other) does the source give for Nc1nc(N)c(N)c(NC(c2ccccc2)c2ccccc2)n1 here?
The T/C was 100 % of control.

What does the source list for NC(=O)c1cc(NCCN2CCCCC2)c([N+](=O)[O-])cc1[N+](=O)[O-]?
T/C [3]: 95 % of control; T/C (dose: 200.0 mg/kg/injection, schedule: Q04DX002 (ip), vehicle: saline with Tween-80): 95 % of control; T/C (dose: 400.0 mg/kg/injection, schedule: Q04DX002 (ip), vehicle: saline with Tween-80): 95 % of control

What does the source list for C=CCn1nnnc1N?
T/C (dose: 100.0 mg/kg/injection, schedule: Q04DX003 (ip), vehicle: saline): 101 % of control; T/C (dose: 200.0 mg/kg/injection, schedule: Q04DX003 (ip), vehicle: saline): 103 % of control; T/C (dose: 400.0 mg/kg/injection, schedule: Q04DX003 (ip), vehicle: saline): 101 % of control

What does the source list for C=CCN(CC=C)CCSC(=S)NCCOC?
T/C [4]: 97 % of control; T/C [5]: 113 % of control; T/C (dose: 200.0 mg/kg/injection, schedule: Q01DX009 (ip), vehicle: saline with Tween-80): 97 % of control

What does the source list for C=CCOC(=O)CCN1CC1?
T/C (dose: 0.5 mg/kg/injection, schedule: Q01DX009 (ip), vehicle: saline with Tween-80): 106 % of control; T/C (dose: 1.0 mg/kg/injection, schedule: Q01DX009 (ip), vehicle: saline with Tween-80): 103 % of control; T/C (dose: 2.0 mg/kg/injection, schedule: Q01DX009 (ip), vehicle: saline with Tween-80): 103 % of control

How did the T/C [6] turn out when CC(C)CNC1=CC(=O)c2ccccc2C1=O was run?
The T/C was 95 % of control.

What about the T/C [7] of the same compound?
The T/C was 98 % of control.

And the T/C (dose: 400.0 mg/kg/injection, schedule: Q04DX003 (ip), vehicle: saline with Tween-80)?
Its T/C is 101 % of control.

Which T/C (dose: 100.0 mg/kg/injection, schedule: Q04DX003 (ip), vehicle: water) does the source give for Nc1ccnn1CCO here?
The T/C was 102 % of control.

What about the T/C (dose: 200.0 mg/kg/injection, schedule: Q04DX003 (ip), vehicle: water) of the same compound?
Its T/C is 101 % of control.

What about the T/C (dose: 400.0 mg/kg/injection, schedule: Q04DX003 (ip), vehicle: water) of the same compound?
The T/C was 101 % of control.

What does the source list for CC(=O)OC1CC2CCC1(C)C2(C)C (centres undefined)?
T/C [6]: 101 % of control; T/C [7]: 95 % of control

How did the T/C (dose: 100.0 mg/kg/injection, schedule: Q01DX001 (ip), vehicle: saline with Tween-80) turn out when CC1CCC(O)C2(C)CC(O)C(C(C)C(=O)O)CC12 (centres undefined) was run?
The T/C was 92 % of control.

What about the T/C (dose: 200.0 mg/kg/injection, schedule: Q01DX001 (ip), vehicle: saline with Tween-80) of the same compound?
The T/C was 92 % of control.

What about the T/C (dose: 400.0 mg/kg/injection, schedule: Q01DX001 (ip), vehicle: saline with Tween-80) of the same compound?
Its T/C is 88 % of control.

CCCCCCCCCCCCCCCCCC[N+]1(Cc2ccccc2)CCOCC1 was tested. Which T/C (dose: 25.0 mg/kg/injection, schedule: Q01DX009 (ip), vehicle: saline with Tween-80) did it give?
Its T/C is 103 % of control.

What about the T/C [4] of the same compound?
The T/C was 115 % of control.

And the T/C [5]?
The T/C was 91 % of control and 100 % of control.

From PubChem BioAssay AID256 (DTP/NCI, 2004)
